Experiments:
HIV-1 protease = molecular target: T1, HIV-1 protease (Human immunodeficiency virus type 1 group M subtype B, UniProt P04585); assay: in vitro inhibition of HIV-1 protease (octapeptide substrate cleavage, HPLC); type: biochemical; details: substrate H-Val-Ser-Gln-Asn-Tyr-Pro-Ile-Val-OH
T1 construct: HIV-1 protease is available for purchase from Medigenics; purchased Medigenics, 701 Mercy Rd., Suite 420, Omaha, Nebraska 68106
Experimental: HIV-1 protease is available for purchase from Medigenics, 701 Mercy Rd., Suite 420, Omaha, Nebraska 68106. Protease activity is assayed using the octapeptide H-Val-Ser-Gln-Asn-Tyr-Pro-Ile-Val-OH as the substrate. Cleavage of the substrate is quantitated by measuring the production of H-Val-Ser-Gln-Asn-Tyr-OH by HPLC analysis by the method described by Tomaselli et al., (cited previously).

[1] = system: HTLV-IIIB strain of HIV-1; assay: anti-HIV-1 activity in H9 based tissue culture, supernatant p24 antigen; type: cell-based; details: for inhibition at 0.2 µg/mL / inhibition at 2 µg/mL / inhibition at 20 µg/mL: Human immunodeficiency virus 1, IIIB, read-out: % Inhibition p24; for % Inhibition p24: H9 culture, relative to infected control cultures
Experimental: Compounds are also tested for their ability to act as anti-HIV-1 compounds in tissue culture. The tests are performed in H9 based tissue culture challenged with HTLV-IIIB strain of HIV-1. The assay consists of evaluating the percent inhibition of supernatent p24 antigen concentrations relative to infected control cultures, as well as percent viable cells at 20 µg/ml in uninfected cells.

HIV-1 strain IIIB = assay: inhibition of growth of HIV-1 in MT-2 cells, CPE (cell death) measured with MTT dye; type: cell-based; details: T lymphoid MT-2 cell lines, after 5 days; for inhibition at 2.5 µg/mL / inhibition at 0.625 µg/mL: Human immunodeficiency virus 1, IIIB, MT2, 120 h, read-out: % Inhibition at Concentration
From the text: In Table 3 data is shown for the ability of these compounds to inhibit growth of HIV-1 strain IIIB in T lymphoid MT-2 cell lines. The endpoint of these experiments after 5 days is CPE (cell death) measured with the metabolic MTT dye.

`CC(C)CNC(=O)[C@H](Cc1ccccc1)CC(O)C[C@@H](Cc1ccccc1)C(=O)NCC(C)C` (relative stereo) [Example 331, [R,(R*,R*)-N,N'-4-hydroxy-N,N'-bis(2-methylpropyl)-2,6-bis(phenylmethyl)heptanediamide] showed an IC50 (HIV-1 protease) of 0.5 µM.
With `CC(C)(C)NC(=O)C1CCCCN1CC(O)(CO)CN1CCCCC1C(=O)NC(C)(C)C` (single isomer, unassigned) [58 (Isomer A)] the IC50 (HIV-1 protease) was over 1000 µM.
`CC(C)(C)NC(=O)C1CCCCN1CC(O)(CO)CN1CCCCC1C(=O)NC(C)(C)C` (single isomer, unassigned) [58 (Isomer B)] was tested, and the IC50 (HIV-1 protease) was 100 µM.
In the case of `CC(C)(C)NC(=O)C(Cc1ccccc1)CC(O)CC(Cc1ccccc1)C(=O)NC(C)(C)C` (stereo not drawn) [Example 36], the IC50 (HIV-1 protease) is reported as 0.1 µM.
With `O=C(NC1CCCC1)C(Cc1ccccc1)CC(O)CC(Cc1ccccc1)C(=O)NC1CCCC1` (stereo not drawn) [Example 39] the IC50 (HIV-1 protease) was 0.01 µM.
Compound `O=C(NCC1CCCCC1)C(Cc1ccccc1)CC(O)CC(Cc1ccccc1)C(=O)NCC1CCCCC1` (stereo not drawn) [Example 42] has an IC50 (HIV-1 protease) of 50 µM.
Work on `CC(C)(C)OC(=O)NC1CCCCC1NC(=O)C(Cc1ccccc1)CC(O)CC(Cc1ccccc1)C(=O)NC1CCCCC1NC(=O)OC(C)(C)C` (stereo not drawn) [Example 46] yielded an IC50 (HIV-1 protease) of 0.8 µM.
Work on `CC(C)(C)NC(=O)CN(Cc1ccccc1)CC(O)(CO)CN(CC(=O)NC(C)(C)C)Cc1ccccc1` [Example 52] yielded an IC50 (HIV-1 protease) of 5 µM, an inhibition at 0.2 µg/mL [1] of 0% and an inhibition at 2 µg/mL [1] of 0%. The inhibition at 20 µg/mL [1] was 90%.
In the case of `CC(C)(C)NC(=O)CN(Cc1ccccc1)CC(O)CN(CC(=O)NC(C)(C)C)Cc1ccccc1` [Example 53], the IC50 (HIV-1 protease) is reported as 100 µM.
For `CCOC(=O)CN(Cc1ccccc1)CC(O)(CO)CN(CC(=O)NC(C)(C)C)Cc1ccccc1` (stereo not drawn) [Example 54], the IC50 (HIV-1 protease) was 100 µM.
Compound `CCOC(=O)CN(Cc1ccccc1)CC(O)(CO)CN(CC(=O)OCC)Cc1ccccc1` [Example 55] has an IC50 (HIV-1 protease) of 100 µM, an inhibition at 0.2 µg/mL [1] of 0% and an inhibition at 2 µg/mL [1] of 0%. For the same compound, the inhibition at 20 µg/mL [1] was 0%.
In the case of `CCOC(=O)CN(CC1CCCCC1)CC(O)(CO)CN(CC(=O)OCC)CC1CCCCC1` [Example 60], the IC50 (HIV-1 protease) is reported as 50 µM.
`COC(=O)[C@H](Cc1ccccc1)NC(=O)[C@@H](NC(=O)[C@H](Cc1ccccc1)CC(O)C[C@@H](Cc1ccccc1)C(=O)N[C@H](C(=O)N[C@@H](Cc1ccccc1)C(=O)OC)C(C)C)C(C)C` [Example 110, [R-(R*,R*)]-N^ω,N^ω'-(2,6-Bis(phenylmethyl)-4-hydroxy-1,7-dioxo-1,7-heptanediyl)bis[N-L-valyl-L-phenylalanine] dimethyl ester] was tested, and the IC50 (HIV-1 protease) was 0.01 µM, the inhibition at 2.5 µg/mL (HIV-1 strain IIIB; 2.5 µg/ml) was 58.7% and the inhibition at 0.625 µg/mL (HIV-1 strain IIIB; .625 µg/ml) was 16.6%.
With `O=C(NC1CCCCC1Nc1ccncc1)C(Cc1ccccc1)CC(O)CC(Cc1ccccc1)C(=O)NC1CCCCC1Nc1ccncc1` (stereo not drawn) [Example 323, [1S-[1α[2R*,6R*,7(1R*,2R*)],2β]]-4-Hydroxy-2,6-bis(phenylmethyl)-N,N'-bis[[(4-pyridyl)amino]cyclohexyl]-heptanediamde] the IC50 (HIV-1 protease) was 0.1 µM, the “% Inhibition at Concentration” value (HIV-1 strain IIIB; 2.5 µg/ml) was 3.1% and the “% Inhibition at Concentration” value (HIV-1 strain IIIB; .625 µg/ml) was 0.2%.
In the case of `O=C(NC1CCCCC1Nc1cccnc1)C(Cc1ccccc1)CC(O)CC(Cc1ccccc1)C(=O)NC1CCCCC1Nc1cccnc1` (stereo not drawn) [Example 324, [1S-[1α[2R*,6R*,7(1R*,2R*)],2β]]-4-Hydroxy-2,6-bis(phenylmethyl)-N,N'-bis[[(3-pyridyl)amino]cyclohexyl]-heptanediamde], the IC50 (HIV-1 protease) is reported as 0.1 µM.
In the case of `O=C(NC1CCCCC1Nc1ccccn1)C(Cc1ccccc1)CC(O)CC(Cc1ccccc1)C(=O)NC1CCCCC1Nc1ccccn1` (stereo not drawn) [Example 325, [1S-[1α[2R*,6R*,7(1R*,2R*)],2β]]-4-Hydroxy-2,6-bis(phenylmethyl)-N,N'-bis[[(2-pyridyl)amino]cyclohexyl]-heptanediamde], the IC50 (HIV-1 protease) is reported as 0.1 µM, the “% Inhibition at Concentration” value (HIV-1 strain IIIB; 2.5 µg/ml) is reported as 3.8% and the “% Inhibition at Concentration” value (HIV-1 strain IIIB; .625 µg/ml) is reported as 0.0%.
In the case of `CC(=O)NC1CCCCC1NC(=O)C(Cc1ccccc1)CC(O)CC(Cc1ccccc1)C(=O)NC1CCCCC1NC(C)=O` (stereo not drawn) [Example 326, [1S-[1α[2R*,6R*,7(1R*,2R*)],2β]]-4-Hydroxy-2,6-bis(phenylmethyl)-N,N'-bis[[(2-acetyl)amino]cyclohexyl]-heptanediamde], the IC50 (HIV-1 protease) is reported as 0.1 µM, the “% Inhibition p24” value ([1]; 2 µg/ml) is reported as 0% and the “% Inhibition p24” value ([1]; 20 µg/ml) is reported as 3%. For the same compound, the “% Inhibition p24” value ([1]; .2 µg/ml) was 0%.
For `O=C(Cc1ccccn1)NC1CCCCC1NC(=O)C(Cc1ccccc1)CC(O)CC(Cc1ccccc1)C(=O)NC1CCCCC1NC(=O)Cc1ccccn1` (stereo not drawn) [Example 327, [1S-[1α[2R*,6R*,7(1R*,2R*)],2β]]-4-Hydroxy-2,6-bis(phenylmethyl)-N,N'-bis[[((2-pyridyl)acetyl)amino]cyclohexyl]-heptanediamde], the IC50 (HIV-1 protease) was 0.1 µM, the “% Inhibition at Concentration” value (HIV-1 strain IIIB; 2.5 µg/ml) was 3.2% and the “% Inhibition at Concentration” value (HIV-1 strain IIIB; .625 µg/ml) was 3.2%.
`CC(C)C(NC(=O)C(Cc1ccccc1)CC(O)CC(Cc1ccccc1)C(=O)NC(C(=O)NCc1nc2ccccc2[nH]1)C(C)C)C(=O)NCc1nc2ccccc2[nH]1` (stereo not drawn) [Example 328, [1S-[1R*[2S*,6S*,7R*],2R*]]-4-Hydroxy-2,6-bis(phenylmethyl)-N,N'-bis[1-[[(1-H-benzimidazoyl-2ylmethyl)amino]carbonyl]-2-methylpropyl]-heptanediamide] showed an IC50 (HIV-1 protease) of 0.005 µM, an inhibition at 2.5 µg/mL (HIV-1 strain IIIB; 2.5 µg/ml) of 72.8% and an inhibition at 0.625 µg/mL (HIV-1 strain IIIB; .625 µg/ml) of 17.1%.
`CCC(C)C(NC(=O)C(Cc1ccccc1)CC(O)CC(Cc1ccccc1)C(=O)NC(C(=O)NCc1nc2ccccc2[nH]1)C(C)CC)C(=O)NCc1nc2ccccc2[nH]1` (stereo not drawn) [Example 329, [1S-[1R*[2S*,6S*,7(1R*,2R*)],2R*]]-4-Hydroxy-2,6-bis(phenylmethyl)-N,N'-bis[1-[[(1-H-benzimidazoyl-2ylmethyl)amino]carbonyl]-2-methylbutyl]heptanediamide] gave an IC50 (HIV-1 protease) of 0.005 µM, an inhibition at 2.5 µg/mL (HIV-1 strain IIIB; 2.5 µg/ml) of 97.9% and an inhibition at 0.625 µg/mL (HIV-1 strain IIIB; .625 µg/ml) of 92.5%.
`O=C(NC1CCCCC1)[C@H](Cc1ccccc1)CC(O)C[C@@H](Cc1ccccc1)C(=O)NC1CCCCC1` [Example 330, [R-(R*,R*)]-N,N'dicyclohexyl-4-hydroxy-2,6-bis(phenylmethyl) heptanediamide] showed an IC50 (HIV-1 protease) of 0.1 µM, an inhibition at 0.2 µg/mL [1] of 0% and an inhibition at 2 µg/mL [1] of 0%. For the same compound, the inhibition at 20 µg/mL [1] was 0%.

Reference: patent publication EP0492136A2, “Retroviral protease inhibitors derived from 3-chloro-2-chloromethyl-1-propene” (AMERICAN CYANAMID COMPANY, priority 1990, dated 1992)
